Common to all, as to format: ADME, organism-based
Data set [1] concerns Homo sapiens. Nature of the data set: (§1) Evaluation of pharmacokinetic parameters for Felodipine following single oral administration of Felodipine immediate or extended-release tablets. Also on record: dose 10 mg, dose 20 mg, route oral. As to conditions: in vivo, po, dosed compound id 10, dosed compound name FELODIPINE, regimen Single dose, tissue Plasma.
The nature of data set [2]: as §1. As to conditions: human, in vivo; dosed compound id 10, dosed compound name FELODIPINE, regimen Single dose, route oral, tissue Plasma. Also on record: dose 10 mg, dose 20 mg, route oral.
The subject of data set [3] is Homo sapiens. Nature of the data set: (§2) Evaluation of pharmacokinetic parameters for Felodipine following multiple oral administration of Felodipine immediate-release tablets. Also on record: dose 10 mg, route oral. As to conditions: in vivo, dose 10 mg, dosed compound id 10, dosed compound name FELODIPINE, gender male and female, regimen Once daily, route oral, tissue Plasma.

Data set [4] can be described thus: as §2. As to conditions: human, in vivo, 10 mg, dosed compound id 10, dosed compound name FELODIPINE, gender male and female, regimen Once daily, tissue Plasma. Also on record: dose 10 mg, route oral.

The structures appear in SMILES notation.

Turning to `CCOC(=O)C1=C(C)NC(C)=C(C(=O)OC)C1c1cccc(Cl)c1Cl` (stereo not drawn) [FELODIPINE], the Cmin ss in the data set with Homo sapiens [1] (dose 10 mg, gender young male and female) stood at 2 nM; with Homo sapiens [1] (dose 20 mg, gender male and female), 7 nM; in the data set with Homo sapiens [3], 0.5 nM. Also, the Cmax in the data set with Homo sapiens [1] (gender male and female) was determined as 23 nM; with Homo sapiens [1] (gender young male and female), 7 nM; in data set [4] it was 20 nM. Moreover, the Tmax in data set [2] was 2.5 to 5 h. In data set [2], the bioavailability stood at 5%.

One may read the Cmax as the peak of the concentration-time curve. Usually Tmax stands for the time at which the peak concentration occurs. As usually defined, the bioavailability is dose-corrected exposure relative to a reference, in per cent. A lower bioavailability goes with poor availability.

(Values after ChEMBL document CHEMBL3832551, “DailyMed|setid=dd39c559-5c5d-4d3b-9228-c44085e1699f | FELODIPINE - felodipine tablet, film coated, extended release|Aurobindo Pharma Limited”.)
